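Tested at 5 concentrations; 48 h exposure; 96-well plates; endpoints linearly interpolated, else capped at highest concentration. GI50 is the concentration that inhibits growth by half.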 Activity calls are given as the source filed them. No stated cut-off is given here; in the data, active = GI50 up to about 1.1 µM and inactive = higher. Some results are limits rather than exact numbers.

The values below come from ChEMBL document CHEMBL1201862, “PubChem BioAssay data set” (2004).

Among the test systems are HCT-15; HOP-92; UACC-62; SNB-75; SK-MEL-2; NCI-H522; SF-268; SN12C; KM12; CAKI-1; TK-10; NCI-H23; A549; SK-MEL-28; IGROV-1; LOX IMVI; UACC-257; HCT-116; MDA-N.
Experiment in all cases: NCI tumour cell line growth inhibition, 48 h

For `CCc1nc2c(O)ccc(O)c2nc1C`, the GI50 with HCT-15 was 16.4 µM; with HOP-92, 5.64 µM (inactive); in the experiment on UACC-62, 14.3 µM (inactive); with SNB-75, 20.8 µM (inactive); with SK-MEL-2 it was 18 µM (inactive); with NCI-H522, 2.56 µM (inactive). In addition, the GI50 with SF-268 is 18.7 µM (inactive); in the experiment with SN12C, 16 µM (inactive); in the experiment with KM12, 17 µM (inactive); in the experiment with CAKI-1, 18.1 µM (inactive); in the experiment on TK-10, 22.5 µM (inactive); in the experiment with NCI-H23 it was 18.6 µM (inactive). Also, the GI50 in the experiment with A549 is 21.8 µM (inactive); with SK-MEL-28 it was 19.6 µM (inactive); in the experiment with IGROV-1, 19 µM (inactive); in the experiment on LOX IMVI, 16.2 µM (inactive); in the experiment on UACC-257 it was 17.4 µM (inactive); with HCT-116, 8.38 µM (inactive).

With `O=C1C(Cl)C(c2cc(Br)ccc2O)N1n1cnc2ccccc2c1=O` (centres undefined), the GI50 in the experiment on HCT-15 is 5.13 µM; in the experiment with HOP-92, 15.7 µM (inactive); with UACC-62, 11.5 µM (inactive); in the experiment with SNB-75 it was 15.2 µM (inactive); with SK-MEL-2 it was 22.1 µM (inactive); in the experiment on NCI-H522, 13.2 µM (inactive). Further, the GI50 was 2.53 µM (inactive) in the experiment with SF-268; 20 µM (inactive) in the experiment on SN12C; 20.7 µM (inactive) in the experiment on KM12; 21.3 µM (inactive) with CAKI-1; 31.8 µM (inactive) in the experiment on TK-10; 16.5 µM (inactive) with NCI-H23. For the same molecule, the GI50 is 26.9 µM (inactive) in the experiment on A549; 14.1 µM (inactive) with SK-MEL-28; 17.5 µM (inactive) with IGROV-1; 6.64 µM (inactive) in the experiment with LOX IMVI; 10.5 µM (inactive) with UACC-257; 5.96 µM (inactive) with HCT-116.

`COC(=O)/C(C#N)=C1\CCc2ccccc21`: the GI50 in the experiment on HCT-15 was more than 100 µM; in the experiment with HOP-92 it was > 100 µM (inactive); with UACC-62, > 100 µM (inactive); in the experiment on SNB-75, > 100 µM (inactive); with SK-MEL-2, > 100 µM (inactive); in the experiment on NCI-H522 it was > 100 µM (inactive). In addition, the GI50 with SF-268, with SN12C, in the experiment with KM12, with CAKI-1, in the experiment with TK-10 and in the experiment with NCI-H23 was > 100 µM (inactive) throughout. Also, the GI50 with A549, in the experiment with SK-MEL-28, with IGROV-1, with LOX IMVI and in the experiment on UACC-257 was > 100 µM (inactive) throughout.

For `CS(=O)(=O)OCCN1CCC2(CC1)SSC1(CCN(CCOS(C)(=O)=O)CC1)S2`, the GI50 in the experiment on MDA-N is 75.5 µM (inactive); with HCT-15 it was more than 100 µM; in the experiment on UACC-62, 30.1 µM (inactive); with SNB-75, 99.1 µM (inactive); with SK-MEL-2, > 100 µM (inactive); in the experiment with SF-268, 22.3 µM (inactive). Besides, the GI50 with SN12C is 43 µM (inactive); with KM12, > 100 µM (inactive); in the experiment with CAKI-1, 21.8 µM (inactive); in the experiment on TK-10, 15.7 µM (inactive); in the experiment on NCI-H23 it was 60 µM (inactive); with A549, > 100 µM (inactive). The GI50 in the experiment with SK-MEL-28 was > 100 µM (inactive); with IGROV-1, 50.8 µM (inactive); in the experiment on LOX IMVI it was 19.8 µM (inactive); in the experiment on UACC-257 it was > 100 µM (inactive); in the experiment with HCT-116, 53.2 µM (inactive).

In the case of `CC1NS(=O)(=O)N(C)C1=O` (centres undefined), the GI50 in the experiment on HCT-15 is more than 100 µM; with HOP-92, > 100 µM (inactive); in the experiment on UACC-62, > 100 µM (inactive); in the experiment on SNB-75 it was 81.8 µM (inactive); in the experiment on SK-MEL-2 it was > 100 µM (inactive); with NCI-H522, > 100 µM (inactive). The GI50 in the experiment on SF-268, with SN12C, in the experiment on KM12, in the experiment on CAKI-1, in the experiment on TK-10 and in the experiment with NCI-H23 was > 100 µM (inactive) in each case. For the same molecule, the GI50 with A549, in the experiment with SK-MEL-28, in the experiment with IGROV-1, with LOX IMVI, in the experiment with UACC-257 and with HCT-116 was > 100 µM (inactive) in each case.

For `CC(C(=O)c1ccc(O)cc1)C1(O)C(=O)Nc2c(Cl)cc(Cl)cc21` (centres undefined), the GI50 with HCT-15 is 71.6 µM; in the experiment on HOP-92 it was > 100 µM (inactive); in the experiment with UACC-62 it was 14 µM (inactive); in the experiment with SNB-75 it was 47.6 µM (inactive); with SK-MEL-2, > 100 µM (inactive); with NCI-H522, 23.1 µM (inactive). Moreover, the GI50 in the experiment with SF-268 is > 76.9 µM (inactive); with SN12C it was 44.9 µM (inactive); with KM12, > 87.3 µM (inactive); in the experiment on CAKI-1, > 100 µM (inactive); in the experiment with TK-10 it was > 100 µM (inactive); in the experiment with NCI-H23, 59.8 µM (inactive). The GI50 in the experiment on A549 is > 100 µM (inactive); in the experiment on SK-MEL-28 it was 31.1 µM (inactive); with IGROV-1 it was > 100 µM (inactive); in the experiment with LOX IMVI it was 24.8 µM (inactive); in the experiment on UACC-257, 17.5 µM (inactive); in the experiment on HCT-116, 43.1 µM (inactive).

Consider `COC(=O)C(=C\Sc1ccccc1)/C=C/C(=O)OC(C)(C)C`, for which the GI50 in the experiment on HCT-15 is 6.67 µM; in the experiment with HOP-92, 4.4 µM (inactive); with UACC-62, 15.3 µM (inactive); with SNB-75, 14 µM (inactive); with SK-MEL-2 it was 12 µM (inactive); in the experiment with NCI-H522, 5.07 µM (inactive). For the same molecule, the GI50 with SF-268 was 14.9 µM (inactive); with KM12, 11.4 µM (inactive); in the experiment on CAKI-1, 3.87 µM (inactive); in the experiment on TK-10, 17.1 µM (inactive); in the experiment on NCI-H23 it was 17.1 µM (inactive); in the experiment with A549, 18.3 µM (inactive). For the same molecule, the GI50 in the experiment on SK-MEL-28 was 13.4 µM (inactive); in the experiment on IGROV-1 it was 13.1 µM (inactive); in the experiment on LOX IMVI it was 8.32 µM (inactive); in the experiment on UACC-257, 13.5 µM (inactive); with HCT-116, 8.47 µM (inactive).

Take `CCOC(=O)C=C1CCC2(CC1)OCCO2`: the GI50 in the experiment with HCT-15 was more than 100 µM; in the experiment with HOP-92 it was > 100 µM (inactive); with UACC-62, > 100 µM (inactive); with SNB-75, > 100 µM (inactive); in the experiment with SK-MEL-2, > 100 µM (inactive); in the experiment on NCI-H522, > 100 µM (inactive). For the same molecule, the GI50 with SF-268, in the experiment on SN12C, in the experiment on KM12, in the experiment on CAKI-1, in the experiment with TK-10 and with NCI-H23 was > 100 µM (inactive) throughout. Also, the GI50 with A549, with SK-MEL-28, in the experiment with IGROV-1, with LOX IMVI, in the experiment with UACC-257 and in the experiment with HCT-116 was > 100 µM (inactive) throughout.

With `COc1cc(CNc2cnc3cc(N)ccc3n2)cc(OC)c1OC`, the GI50 was 23 µM in the experiment on HCT-15; 58.5 µM (inactive) with HOP-92; 12.7 µM (inactive) in the experiment with UACC-62; 31.6 µM (inactive) in the experiment with SNB-75; 1.14 µM (inactive) with SK-MEL-2; 18.8 µM (inactive) with NCI-H522. In addition, the GI50 in the experiment on SF-268 was > 100 µM (inactive); in the experiment on SN12C, 54.5 µM (inactive); in the experiment on KM12 it was 66.4 µM (inactive); in the experiment with CAKI-1, 34.7 µM (inactive); in the experiment on TK-10, 64.9 µM (inactive); with NCI-H23, 28.5 µM (inactive). Moreover, the GI50 in the experiment on A549 is 44.6 µM (inactive); with SK-MEL-28, > 100 µM (inactive); in the experiment with IGROV-1, 39.3 µM (inactive); with LOX IMVI, 23.9 µM (inactive); in the experiment with UACC-257, > 100 µM (inactive); in the experiment on HCT-116 it was 18.7 µM (inactive).

As for `Cc1ccc(-c2c(C#N)c(-c3ccc([N+](=O)[O-])cc3)c(C#N)c(=O)n2NS(=O)(=O)c2ccc(C)cc2)cc1`, the GI50 in the experiment on MDA-N was 75.9 µM (inactive); in the experiment on HCT-15, 41.6 µM; in the experiment with HOP-92 it was 23.5 µM (inactive); with UACC-62, 31 µM (inactive); in the experiment with SNB-75, 74.5 µM (inactive); with SK-MEL-2 it was 62.4 µM (inactive). For the same molecule, the GI50 was 31.8 µM (inactive) in the experiment on NCI-H522; 79.3 µM (inactive) in the experiment with SF-268; 50 µM (inactive) with SN12C; 30.2 µM (inactive) in the experiment with KM12; 50.6 µM (inactive) in the experiment on CAKI-1; 51.3 µM (inactive) in the experiment on TK-10. For the same molecule, the GI50 was 51.9 µM (inactive) in the experiment with A549; 52.8 µM (inactive) in the experiment on SK-MEL-28; 24.7 µM (inactive) with IGROV-1; 33.4 µM (inactive) in the experiment on LOX IMVI; > 100 µM (inactive) in the experiment on UACC-257; 36.6 µM (inactive) in the experiment on HCT-116.

Take `C[C@H]1O[C@@H](c2c(O)ccc3ccccc23)C[C@@H](N(C)C)C1O` (some centres undefined): the GI50 in the experiment with MDA-N was > 100 µM (inactive); with HCT-15 it was more than 100 µM; in the experiment with HOP-92, 24.2 µM (inactive); in the experiment on UACC-62 it was 81.3 µM (inactive); in the experiment on SNB-75, 43.8 µM (inactive); in the experiment on SK-MEL-2 it was > 100 µM (inactive). The GI50 with NCI-H522 was > 100 µM (inactive); in the experiment on SF-268, > 100 µM (inactive); in the experiment on SN12C, > 100 µM (inactive); with TK-10, 41.3 µM (inactive); with NCI-H23, > 100 µM (inactive); in the experiment on A549 it was > 100 µM (inactive). Moreover, the GI50 in the experiment on SK-MEL-28 was 97.5 µM (inactive); in the experiment with IGROV-1, 73.6 µM (inactive); with LOX IMVI, > 100 µM (inactive); with UACC-257 it was 26.5 µM (inactive); with HCT-116 it was > 100 µM (inactive).

With `Oc1ccc(/C=N/c2nccs2)c(O)c1`, the GI50 was > 100 µM (inactive) in the experiment with MDA-N; more than 100 µM in the experiment with HCT-15; > 100 µM (inactive) in the experiment with UACC-62; > 100 µM (inactive) in the experiment with SNB-75; > 100 µM (inactive) in the experiment with NCI-H522; > 100 µM (inactive) in the experiment on SF-268. The GI50 with KM12 is 16 µM (inactive); in the experiment on CAKI-1, > 100 µM (inactive); in the experiment with TK-10, > 100 µM (inactive); in the experiment on NCI-H23, > 100 µM (inactive); with A549, > 100 µM (inactive); with IGROV-1, > 100 µM (inactive). In addition, the GI50 in the experiment on LOX IMVI, in the experiment on UACC-257 and with HCT-116 was > 100 µM (inactive) in each case.
